Results published in patent US10406098B2, “Injection solution comprising a non-nucleoside reverse-transcriptase inhibitor and poly(lactide-co-glycolide)” (Evonik Roehm GmbH, priority 2015, dated 2019).

Assay: Release test in phosphate buffer saline pH 7.4 (standard body-fluid single compartment release experiment)
Type: physicochemical
Conditions: PBS pH 7.4, samples at 0, 1, 2, 4, 24 and 96 hours, HPLC; comparative statement
Protocol: Example Performance in a standard body-fluid single compartment release experiment Release Test: 100 ml of phosphate buffer saline pH 7.4 (PBS, British Pharmacopoeia) are given to a 200 ml volumetric flask. […] PBS-buffer is filled up to 200 ml. API release studies were performed in triplicate. Samples (2 ml) for HPLC analysis were taken at 0, 1, 2, 4, 24 and 96 hours and centrifuged for 5 minutes at 13400 rpm the supernatant was injected according to the HPLC method in Table 5. At 2, 4 and 24 hours 100 ml of the dissolution medium were pulled and 100 ml of fresh buffer was added (PBS 7.4). [table]

- release / release rate of the active ingredient: much higher
Structure (SMILES): O=C1Nc2ccc(Cl)cc2[C@@](C#CC2CC2)(C(F)(F)F)O1 [Efavirenz]
